In patent US20220265657A1, “ADMINISTRATION METHOD AND DOSAGE REGIMEN FOR TREATMENT OF NEURODEGENERATIVE DISEASES USING TRAMETINIB AND MARKERS” (GENUV INC., priority 2019, published 2022):

What was measured:
[1] = tested on: patient with Alzheimer's disease; experiment: Therapeutic effects of trametinib in humans; format: in vivo, human; settings: daily for at least four weeks, brain Cmax at least 0.25 ng/g
Protocol: Trametinib is administered to a patient with Alzheimer's disease in an amount that provides a mean peak trametinib concentration (Cmax) of at least 0.25 ng/g in the brain. The administration is performed daily for at least four weeks.

[2] = tested on: 5XFAD mice; experiment: Immunofluorescence of active caspase 3, LC3 and LAMP1 in cortex layer V; format: in vivo; settings: 5XFAD mice cortex
Protocol: Trametinib treatment: Trametinib (Medchemexpress, Monmouth Junction, N.J.) was micronized and suspended in the vehicle containing 5% mannitol, 1.5% hydroxypropyl methylcellulose and 0.2% sodium lauryl sulfate. For pharmacokinetic analysis, 0.05, 0.2 and 0.8 mg/kg of trametinib were orally administered to 7-week-old normal mice (ICR, n=5 per group) as a single administration. […] For studies on the change in pERK expression in normal mice and whole cell RNA sequencing study, 0.1 mg/kg/day of trametinib (in 4% DMSO+96% corn oil) was orally administered to 6-week old C57BL/6 mice (n=3 per group). Mice were sacrificed after 1, 2, 3, or 4 weeks of administration. 5XFAD mice (male, n=7˜10 per group) were divided into vehicle and trametinib treated groups. 12-month old mice received vehicle or 0.1 mg/kg of trametinib for 1 month by oral gavage once a day (These mice are referred to as “13-month old 5XFAD mice” in the Examples). […] Blood was obtained after completion of treatment.
Brains were dissected and analyzed by immunohistochemistry. For paraffin sections, brain hemispheres were embedded sagittally in paraffin and prepared into sections of […] slices. […] The sections were counterstained with DAPI. […] NeuN-positive and active caspase 3-positive cells from cortex layer V were counted using Icy micromanager program (Institut Pasteur, Paris, France).

Compound: CC(=O)Nc1cccc(-n2c(=O)n(C3CC3)c(=O)c3c(Nc4ccc(I)cc4F)n(C)c(=O)c(C)c32)c1 [trametinib]
- behavioral and/or physiological symptoms associated with Alzheimer's disease [1]: reduces behavioral and/or physiological symptoms associated with Alzheimer's disease
- LC3-LAMP1 co-stained cells [2]: Increased LC3-LAMP1 co-stained cells
- apoptosis (active caspase 3) [2]: reduced apoptosis
